Values after ≈ are worked out from the molar mass of the structure shown.
What was measured:
[1] = test system: Staphylococcus aureus 491; assay: broth micro-dilution MIC; assay type: cell-based
Protocol: (§1) The MIC's were determined using a standard broth micro-dilution assay.

[2] = test system: Staphylococcus aureus SA1199; assay: broth micro-dilution MIC; assay type: cell-based
Protocol: as §1

[3] = test system: Staphylococcus aureus 446; assay: broth micro-dilution MIC; assay type: cell-based
Protocol: as §1

Entercoccus faecium 276 = assay: broth micro-dilution MIC; assay type: cell-based
Protocol: as §1

[4] = test system: Staphylococcus aureus X778; assay: broth micro-dilution MIC; assay type: cell-based
Protocol: as §1

[5] = test system: Entercoccus faecium 180-1; assay: broth micro-dilution MIC; assay type: cell-based
Protocol: as §1

[6] = test system: Streptococcus pyogenes C203; assay: broth micro-dilution MIC; assay type: cell-based
Protocol: as §1

[7] = test system: Staphylococcus aureus X400; assay: broth micro-dilution MIC; assay type: cell-based
Protocol: as §1

[8] = test system: Staphylococcus aureus SA1199A; assay: broth micro-dilution MIC; assay type: cell-based
Protocol: as §1

[9] = test system: Staphylococcus aureus 447; assay: broth micro-dilution MIC; assay type: cell-based
Protocol: as §1

[10] = test system: Staphylococcus aureus 489; assay: broth micro-dilution MIC; assay type: cell-based
Protocol: as §1

[11] = test system: vancomycin-resistant enterococci; assay: broth micro-dilution, mean geometric MIC; assay type: cell-based, Enterococcus faecium and Enterococcus faecalis; conditions: enterococci, 24-hour incubation
[12] = test system: Staphylococcus epidermidis 270; assay: broth micro-dilution MIC; assay type: cell-based
Protocol: (§2) The formula I compounds have in vitro and in vivo activity against Gram-positive pathogenic bacteria. The MIC's were determined using a standard broth micro-dilution assay.

[13] = test system: Staphylococcus haemolyticus 105; assay: broth micro-dilution MIC; assay type: cell-based
Protocol: as §2

[14] = test system: Staphylococcus haemolyticus 415; assay: broth micro-dilution MIC; assay type: cell-based
Protocol: as §2

[15] = test system: Streptococcus pneumoniae P1; assay: broth micro-dilution MIC; assay type: cell-based
Protocol: as §2

Entercoccus faecium 180 = assay: broth micro-dilution MIC; assay type: cell-based; conditions: Entercoccus faecium 180
Protocol: as §2

[16] = test system: Enterococcus gallinarum 245; assay: broth micro-dilution MIC; assay type: cell-based; conditions: Enterococcus gallinarum 245
Protocol: as §2

Escherichia coli EC14 = assay: broth micro-dilution MIC; assay type: cell-based
Protocol: as §2

[17] = test system: Haemophilus influenzae RD; assay: broth micro-dilution MIC; assay type: cell-based; conditions: Haemophilus influenzae RD
Protocol: as §2

Entercoccus faecium 2041 = assay: broth micro-dilution MIC; assay type: cell-based; conditions: Entercoccus faecium 2041
Protocol: as §2

[18] = test system: Staphylococcus aureus SA1199B; assay type: cell-based
Protocol: as §1

[19] = test system: Staphylococcus aureus S13E; assay type: cell-based
Protocol: as §1

[20] = test system: vancomycin-susceptible enterococci; assay: broth micro-dilution, mean geometric MIC; assay type: cell-based, Enterococcus faecium and Enterococcus faecalis; conditions: enterococci, 24-hour incubation

Structure (SMILES) | MIC [1] [µg/mL] | MIC [2] [µg/mL] | MIC [3] [µg/mL] | MIC (Entercoccus faecium 276) [µg/mL] | MIC [4] [µg/mL] | MIC [5] [µg/mL] | MIC [6] [µg/mL] | MIC [7] [µg/mL] | MIC [8] [µg/mL] | MIC [9] [µg/mL] | MIC [10] [µg/mL] | mean geometric MIC, Vancomycin Resistant Strains [11] [µg/mL] | MIC [12] [µg/mL] | MIC [13] [µg/mL] | MIC [14] [µg/mL] | MIC [15] [µg/mL] | MIC (Entercoccus faecium 180) [µg/mL] | MIC [16] [µg/mL] | MIC (Escherichia coli EC14) [µg/mL] | MIC [17] [µg/mL] | further results
CC(C)CC(C(=O)NC1C(=O)NC(CC(N)=O)C(=O)NC2C(=O)NC3C(=O)NC(C(=O)NC(C(=O)O)c4cc(O)cc(O)c4-c4cc3ccc4O)C(OC3CC(C)(N)C(O)C(C)O3)c3ccc(c(Cl)c3)Oc3cc2cc(c3OC2OC(CO)C(O)C(O)C2OC2CC(C)(NCc3ccc(Oc4ccccc4)cc3)C(O)C(C)O2)Oc2ccc(cc2Cl)C1O)N(C)Cc1ccc(Oc2ccccc2)cc1 (stereo not drawn) [Compound 247] | 0.5 (≈ 0.256 µM) | 1 (≈ 0.511 µM) | 0.5 (≈ 0.256 µM) | 0.25 (≈ 0.128 µM) | 0.5 (≈ 0.256 µM) | ≤ 0.06 | ≤ 0.06 | 0.5 (≈ 0.256 µM) | ≤ 0.06 | 1 (≈ 0.511 µM) | 0.25 (≈ 0.128 µM) | 2.4 | 1 (≈ 0.511 µM) | 1 (≈ 0.511 µM) | 2 (≈ 1.02 µM) | ≤ 0.06 | 0.5 (≈ 0.256 µM) | 0.125 (≈ 0.0639 µM) | > 64 | > 64 | MIC (Entercoccus faecium 2041): 0.125 µg/mL (≈ 0.0639 µM); MIC [18]: 0.5 µg/mL (≈ 0.256 µM); MIC [19]: 0.5 µg/mL (≈ 0.256 µM); mean geometric MIC, Vancomycin Sensitive Strains [20]: 0.29 µg/mL
CNC(CC(C)C)C(=O)NC1C(=O)NC(CC(N)=O)C(=O)NC2C(=O)NC3C(=O)NC(C(=O)NC(C(=O)O)c4cc(O)cc(O)c4-c4cc3ccc4O)C(OC3CC(C)(NCc4ccc(-c5ccccc5)cc4)C(O)C(C)O3)c3ccc(c(Cl)c3)Oc3cc2cc(c3OC2OC(CO)C(O)C(O)C2OC2CC(C)(NCc3ccc(-c4ccccc4)cc3)C(O)C(C)O2)Oc2ccc(cc2Cl)C1O (stereo not drawn) [Compound 248] | 1 (≈ 0.52 µM) | 1 (≈ 0.52 µM) | 2 (≈ 1.04 µM) | 2 (≈ 1.04 µM) | 4 (≈ 2.08 µM) | ≤ 0.06 | ≤ 0.06 | 4 (≈ 2.08 µM) | 1 (≈ 0.52 µM) | 4 (≈ 2.08 µM) | 2 (≈ 1.04 µM) | 2 | 0.5 (≈ 0.26 µM) | 2 (≈ 1.04 µM) | 4 (≈ 2.08 µM) | ≤ 0.06 | 0.25 (≈ 0.13 µM) | 4 (≈ 2.08 µM) | > 64 | > 64 | MIC (Entercoccus faecium 2041): 1 µg/mL (≈ 0.52 µM); MIC [18]: 8 µg/mL (≈ 4.16 µM); MIC [19]: 0.5 µg/mL (≈ 0.26 µM); mean geometric MIC, Vancomycin Sensitive Strains [20]: 0.66 µg/mL
CC(C)CC(C(=O)NC1C(=O)NC(CC(N)=O)C(=O)NC2C(=O)NC3C(=O)NC(C(=O)NC(C(=O)O)c4cc(O)cc(O)c4-c4cc3ccc4O)C(OC3CC(C)(NCc4ccc(-c5ccccc5)cc4)C(O)C(C)O3)c3ccc(c(Cl)c3)Oc3cc2cc(c3OC2OC(CO)C(O)C(O)C2OC2CC(C)(NCc3ccc(-c4ccccc4)cc3)C(O)C(C)O2)Oc2ccc(cc2Cl)C1O)N(C)Cc1ccc(-c2ccccc2)cc1 (stereo not drawn) [Compound 249] | 32 (≈ 15.3 µM) | > 64 | 64 (≈ 30.6 µM) | > 64 | > 64 | 4 (≈ 1.91 µM) | 0.5 (≈ 0.239 µM) | > 64 | 8 (≈ 3.83 µM) | > 64 | > 64 | 11 | 32 (≈ 15.3 µM) | > 64 | > 64 | 1 (≈ 0.478 µM) | 16 (≈ 7.65 µM) | > 64 | > 64 | > 64 | MIC (Entercoccus faecium 2041): > 64 µg/mL; MIC [18]: > 64 µg/mL; MIC [19]: > 64 µg/mL; mean geometric MIC, Vancomycin Sensitive Strains [20]: 3.5 µg/mL
CC(C)CC(C(=O)NC1C(=O)NC(CC(N)=O)C(=O)NC2C(=O)NC3C(=O)NC(C(=O)NC(C(=O)O)c4cc(O)cc(O)c4-c4cc3ccc4O)C(OC3CC(C)(N)C(O)C(C)O3)c3ccc(c(Cl)c3)Oc3cc2cc(c3OC2OC(CO)C(O)C(O)C2OC2CC(C)(N)C(O)C(C)O2)Oc2ccc(cc2Cl)C1O)N(C)Cc1ccc(-c2ccccc2)cc1 (stereo not drawn) [Compound 250] | ≤ 0.06 | ≤ 0.06 | 0.25 (≈ 0.142 µM) | ≤ 0.06 | ≤ 0.06 | ≤ 0.06 | ≤ 0.06 | ≤ 0.06 | ≤ 0.06 | 0.125 (≈ 0.0711 µM) | ≤ 0.06 | 16 | 0.25 (≈ 0.142 µM) | 2 (≈ 1.14 µM) | 4 (≈ 2.27 µM) | ≤ 0.06 | 2 (≈ 1.14 µM) | 4 (≈ 2.27 µM) | > 64 | > 64 | MIC (Entercoccus faecium 2041): ≤ 0.06 µg/mL; MIC [18]: ≤ 0.06 µg/mL; MIC [19]: ≤ 0.06 µg/mL; mean geometric MIC, Vancomycin Sensitive Strains [20]: 0.44 µg/mL
CC(C)CC(C(=O)NC1C(=O)NC(CC(N)=O)C(=O)NC2C(=O)NC3C(=O)NC(C(=O)NC(C(=O)O)c4cc(O)cc(O)c4-c4cc3ccc4O)C(OC3CC(C)(N)C(O)C(C)O3)c3ccc(c(Cl)c3)Oc3cc2cc(c3OC2OC(CO)C(O)C(O)C2OC2CC(C)(NCc3ccc(-c4ccccc4)cc3)C(O)C(C)O2)Oc2ccc(cc2Cl)C1O)N(C)Cc1ccc(-c2ccccc2)cc1 (stereo not drawn) [Compound 251] | ≤ 0.06 | ≤ 0.06 | 0.25 (≈ 0.13 µM) | ≤ 0.06 | ≤ 0.06 | ≤ 0.06 | ≤ 0.06 | ≤ 0.06 | ≤ 0.06 | 0.125 (≈ 0.0649 µM) | ≤ 0.06 | 2 | 0.25 (≈ 0.13 µM) | 2 (≈ 1.04 µM) | 4 (≈ 2.08 µM) | ≤ 0.06 | 2 (≈ 1.04 µM) | 4 (≈ 2.08 µM) | > 64 | > 64 | MIC (Entercoccus faecium 2041): ≤ 0.06 µg/mL; MIC [18]: ≤ 0.06 µg/mL; MIC [19]: ≤ 0.06 µg/mL; mean geometric MIC, Vancomycin Sensitive Strains [20]: 0.66 µg/mL
CC(C)CC(C(=O)NC1C(=O)NC(CC(N)=O)C(=O)NC2C(=O)NC3C(=O)NC(C(=O)NC(C(=O)O)c4cc(O)cc(O)c4-c4cc3ccc4O)C(OC3CC(C)(N)C(O)C(C)O3)c3ccc(c(Cl)c3)Oc3cc2cc(c3OC2OC(CO)C(O)C(O)C2OC2CC(C)(N)C(O)C(C)O2)Oc2ccc(cc2Cl)C1O)N(C)Cc1ccc(-c2ccc(Cl)cc2)cc1.O=C(O)C(F)(F)F (stereo not drawn) [Compound 252] | ≤ 0.06 | 0.125 | 0.125 | ≤ 0.06 | ≤ 0.06 | ≤ 0.06 | ≤ 0.06 | 0.125 | ≤ 0.06 | ≤ 0.06 | ≤ 0.06 | 9.5 | 0.125 | 0.5 | 1 | ≤ 0.06 | 0.5 | 1 | > 64 | > 64 | MIC (Entercoccus faecium 2041): ≤ 0.06 µg/mL; MIC [18]: ≤ 0.06 µg/mL; MIC [19]: 0.125 µg/mL; mean geometric MIC, Vancomycin Sensitive Strains [20]: 0.1 µg/mL
